# Assay results reported in ChEMBL document CHEMBL5465560, “Selectivity Literature for EUbOPEN Chemogenomic Library” (2024).
# Assays:
# [1] = target: Calcium/calmodulin-dependent protein kinase type 1B (Homo sapiens) (UniProt Q6P2M8); assay: Selectivity interaction (KinomeScan (DiscoverX)) EUB0000229b PNCK; settings: at 10 µM
# [2] = target: T1, Tyrosine-protein kinase Mer (Homo sapiens) (UniProt Q12866); assay: Selectivity interaction (KinomeScan (DiscoverX)) EUB0000595a MERTK; settings: at 10 µM
# T1 sequence (whole entry): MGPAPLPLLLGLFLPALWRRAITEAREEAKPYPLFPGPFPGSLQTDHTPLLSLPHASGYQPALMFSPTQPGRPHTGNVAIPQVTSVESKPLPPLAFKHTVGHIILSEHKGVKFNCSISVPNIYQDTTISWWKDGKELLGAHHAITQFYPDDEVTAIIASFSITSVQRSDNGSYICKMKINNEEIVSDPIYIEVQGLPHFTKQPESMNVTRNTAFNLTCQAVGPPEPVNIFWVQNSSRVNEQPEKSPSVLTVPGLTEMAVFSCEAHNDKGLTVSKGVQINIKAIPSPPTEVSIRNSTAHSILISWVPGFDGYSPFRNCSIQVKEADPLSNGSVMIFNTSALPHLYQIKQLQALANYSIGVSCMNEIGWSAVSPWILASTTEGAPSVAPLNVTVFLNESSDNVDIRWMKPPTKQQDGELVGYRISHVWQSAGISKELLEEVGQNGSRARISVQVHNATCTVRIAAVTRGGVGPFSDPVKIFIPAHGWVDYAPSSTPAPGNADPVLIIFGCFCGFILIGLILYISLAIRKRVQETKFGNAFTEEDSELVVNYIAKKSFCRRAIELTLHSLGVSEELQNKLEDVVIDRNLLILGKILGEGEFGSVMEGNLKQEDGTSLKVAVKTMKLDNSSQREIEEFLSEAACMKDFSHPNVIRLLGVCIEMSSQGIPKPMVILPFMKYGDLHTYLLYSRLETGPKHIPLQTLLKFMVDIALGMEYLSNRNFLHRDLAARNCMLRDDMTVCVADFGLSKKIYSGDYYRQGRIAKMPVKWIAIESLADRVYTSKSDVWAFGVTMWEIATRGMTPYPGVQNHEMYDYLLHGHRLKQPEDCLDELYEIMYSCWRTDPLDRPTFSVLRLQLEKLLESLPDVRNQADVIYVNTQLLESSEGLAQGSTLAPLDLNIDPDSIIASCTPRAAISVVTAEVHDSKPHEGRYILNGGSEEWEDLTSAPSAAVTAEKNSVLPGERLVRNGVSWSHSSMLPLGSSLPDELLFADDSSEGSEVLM
# [3] = target: T2, Serine/threonine-protein kinase Nek1 (Homo sapiens) (UniProt Q96PY6); settings: at 10 µM
# T2 sequence (whole entry): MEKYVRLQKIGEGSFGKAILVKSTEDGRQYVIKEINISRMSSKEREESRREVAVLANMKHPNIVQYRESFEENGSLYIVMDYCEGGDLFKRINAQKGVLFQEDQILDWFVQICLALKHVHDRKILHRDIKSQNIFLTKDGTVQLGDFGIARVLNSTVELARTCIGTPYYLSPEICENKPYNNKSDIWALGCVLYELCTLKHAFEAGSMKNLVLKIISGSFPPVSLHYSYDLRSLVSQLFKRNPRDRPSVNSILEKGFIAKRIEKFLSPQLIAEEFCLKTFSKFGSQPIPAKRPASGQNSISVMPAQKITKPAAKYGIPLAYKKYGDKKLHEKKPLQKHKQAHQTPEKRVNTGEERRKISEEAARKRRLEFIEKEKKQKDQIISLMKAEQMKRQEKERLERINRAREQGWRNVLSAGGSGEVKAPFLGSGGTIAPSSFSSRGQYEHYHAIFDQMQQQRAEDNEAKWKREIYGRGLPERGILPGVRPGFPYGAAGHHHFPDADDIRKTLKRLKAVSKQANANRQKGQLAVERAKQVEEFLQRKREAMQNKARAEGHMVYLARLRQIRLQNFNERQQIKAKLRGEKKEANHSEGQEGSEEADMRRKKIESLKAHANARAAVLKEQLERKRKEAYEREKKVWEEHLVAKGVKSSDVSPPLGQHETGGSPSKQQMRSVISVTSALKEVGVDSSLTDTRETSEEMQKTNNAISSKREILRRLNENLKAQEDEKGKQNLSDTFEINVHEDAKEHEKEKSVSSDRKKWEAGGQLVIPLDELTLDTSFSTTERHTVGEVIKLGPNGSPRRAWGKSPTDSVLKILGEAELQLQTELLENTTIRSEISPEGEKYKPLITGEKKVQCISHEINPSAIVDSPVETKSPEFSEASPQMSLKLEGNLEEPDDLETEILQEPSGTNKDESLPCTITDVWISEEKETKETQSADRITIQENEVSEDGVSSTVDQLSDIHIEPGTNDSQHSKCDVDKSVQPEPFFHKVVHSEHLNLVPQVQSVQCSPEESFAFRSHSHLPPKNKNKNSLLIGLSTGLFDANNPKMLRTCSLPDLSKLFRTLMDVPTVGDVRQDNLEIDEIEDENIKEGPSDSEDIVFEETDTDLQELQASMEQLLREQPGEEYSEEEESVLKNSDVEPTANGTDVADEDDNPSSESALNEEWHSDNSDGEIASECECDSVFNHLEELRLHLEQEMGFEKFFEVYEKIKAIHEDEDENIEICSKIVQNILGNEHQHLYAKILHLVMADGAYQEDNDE
# [4] = target: Ephrin type-A receptor 5 (Homo sapiens) (UniProt P54756); assay: Selectivity interaction (Kinase panel (DSF assay)) EUB0001559a EPHA5
# Ephrin type-A receptor 5 (Homo sapiens), sequence (P54756 whole entry): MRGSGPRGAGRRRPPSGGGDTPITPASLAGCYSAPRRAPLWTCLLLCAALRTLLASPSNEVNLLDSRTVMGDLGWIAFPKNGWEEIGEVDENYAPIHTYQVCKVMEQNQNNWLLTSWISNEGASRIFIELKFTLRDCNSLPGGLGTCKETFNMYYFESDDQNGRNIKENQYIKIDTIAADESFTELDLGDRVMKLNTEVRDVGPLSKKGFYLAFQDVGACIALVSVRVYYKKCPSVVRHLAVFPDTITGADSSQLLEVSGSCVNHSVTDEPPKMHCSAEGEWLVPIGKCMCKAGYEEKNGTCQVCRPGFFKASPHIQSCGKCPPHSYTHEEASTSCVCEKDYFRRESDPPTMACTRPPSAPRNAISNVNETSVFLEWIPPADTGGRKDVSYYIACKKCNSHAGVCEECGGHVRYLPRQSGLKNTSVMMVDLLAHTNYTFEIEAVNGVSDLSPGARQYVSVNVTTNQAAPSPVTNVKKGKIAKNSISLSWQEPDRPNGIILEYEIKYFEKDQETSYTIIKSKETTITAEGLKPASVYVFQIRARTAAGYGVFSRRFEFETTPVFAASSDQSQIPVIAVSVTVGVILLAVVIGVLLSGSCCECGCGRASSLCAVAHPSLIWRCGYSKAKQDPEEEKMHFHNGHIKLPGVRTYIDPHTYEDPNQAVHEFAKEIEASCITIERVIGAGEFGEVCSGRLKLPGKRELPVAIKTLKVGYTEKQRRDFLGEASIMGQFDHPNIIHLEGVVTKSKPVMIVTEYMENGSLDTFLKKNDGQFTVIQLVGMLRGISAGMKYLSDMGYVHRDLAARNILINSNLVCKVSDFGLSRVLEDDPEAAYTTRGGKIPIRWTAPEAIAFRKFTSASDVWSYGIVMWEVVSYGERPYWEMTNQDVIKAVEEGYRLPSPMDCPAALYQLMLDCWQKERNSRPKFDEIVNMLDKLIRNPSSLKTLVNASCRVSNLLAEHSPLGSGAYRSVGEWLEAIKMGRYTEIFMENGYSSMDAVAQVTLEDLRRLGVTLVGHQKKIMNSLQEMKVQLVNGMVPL
# [5] = target: T3, Tyrosine-protein kinase ITK/TSK (Homo sapiens) (UniProt Q08881); assay: Selectivity interaction (KinomeScan (DiscoverX)) EUB0001049a ITK; settings: at 1 µM
# T3 sequence (whole entry): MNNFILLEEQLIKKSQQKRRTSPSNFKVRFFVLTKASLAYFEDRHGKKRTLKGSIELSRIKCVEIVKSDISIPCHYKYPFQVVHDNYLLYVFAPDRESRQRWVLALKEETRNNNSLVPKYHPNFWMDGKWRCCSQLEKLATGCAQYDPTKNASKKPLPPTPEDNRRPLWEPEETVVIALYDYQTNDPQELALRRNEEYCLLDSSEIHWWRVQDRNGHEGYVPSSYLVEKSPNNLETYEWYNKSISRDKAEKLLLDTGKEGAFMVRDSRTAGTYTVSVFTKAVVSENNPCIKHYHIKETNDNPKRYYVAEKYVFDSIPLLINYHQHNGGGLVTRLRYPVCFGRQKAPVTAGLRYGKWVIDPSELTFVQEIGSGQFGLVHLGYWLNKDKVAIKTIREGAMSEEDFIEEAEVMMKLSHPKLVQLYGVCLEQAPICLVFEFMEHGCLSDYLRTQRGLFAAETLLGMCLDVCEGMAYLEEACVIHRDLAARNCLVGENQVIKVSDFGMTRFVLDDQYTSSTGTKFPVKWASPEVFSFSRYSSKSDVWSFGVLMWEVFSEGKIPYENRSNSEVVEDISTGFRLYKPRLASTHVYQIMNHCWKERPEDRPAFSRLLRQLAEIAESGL
# Calcium/calmodulin-dependent protein kinase type 1B (Homo sapiens), sequence (Q6P2M8 whole entry): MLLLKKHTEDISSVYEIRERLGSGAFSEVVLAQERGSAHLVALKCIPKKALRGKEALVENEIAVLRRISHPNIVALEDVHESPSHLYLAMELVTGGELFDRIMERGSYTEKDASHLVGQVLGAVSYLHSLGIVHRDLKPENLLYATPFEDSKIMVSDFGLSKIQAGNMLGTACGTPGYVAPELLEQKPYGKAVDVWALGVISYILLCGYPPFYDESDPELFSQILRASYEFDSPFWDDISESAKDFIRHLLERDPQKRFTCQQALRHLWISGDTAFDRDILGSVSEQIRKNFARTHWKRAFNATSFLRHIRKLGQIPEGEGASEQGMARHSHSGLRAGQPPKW
structure (smiles),measurement,setting,value
COc1cc(N(C)c2ccnc3ccc(C(F)(F)F)cc23)cc(OC)c1OC,% binding,[1],98%
COCC(=O)NC/C=C/c1ccc2ncnc(Nc3ccc(Oc4ccc(C)nc4)c(C)c3)c2c1 [CP-724714],% of control,[2],97%
same,% of control,[3],83%
CN(C(=O)c1cnn2cccnc12)c1cc2c(cc1N1CCOCC1)C(=O)N(C[C@@H](F)C(C)(C)O)C2,dTM,[4],-0.3 K
COc1cc(Nc2nc(C)cc(-c3cnn4nc(OC)ccc34)n2)cc(C(F)(F)F)c1,% of control,[5],82%
